Experimental data reported in PubChem BioAssay (NCI).
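Cultured in 96-well plates, cells were exposed to test compound for 48 hours across five concentrations. At the TGI there is no net growth.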

Tests used:
Experiment in all cases: inhibition of tumour cell growth, NCI panel, 48 h
RPMI-8226 leukemia = test system: RPMI-8226 leukemia
CAKI-1 renal = test system: CAKI-1 renal
SK-OV-3 ovarian = test system: SK-OV-3 ovarian
HCT-15 colon = test system: HCT-15 colon
NCI-H460 lung = test system: NCI-H460 lung
K-562 leukemia = test system: K-562 leukemia
SR leukemia = test system: SR leukemia
TK-10 renal = test system: TK-10 renal
OVCAR-8 ovarian = test system: OVCAR-8 ovarian
ACHN renal = test system: ACHN renal
SNB-78 CNS = test system: SNB-78 CNS
HOP-62 NSCLC = test system: HOP-62 NSCLC
SW-620 colon = test system: SW-620 colon
HOP-18 NSCLC = test system: HOP-18 NSCLC
NCI-H522 lung = test system: NCI-H522 lung
OVCAR-3 ovarian = test system: OVCAR-3 ovarian
A549 NSCLC = test system: A549 NSCLC
CCRF-CEM leukemia = test system: CCRF-CEM leukemia
NCI-H23 lung = test system: NCI-H23 lung
LXFL 529 NSCLC = test system: LXFL 529 NSCLC
HL-60(TB) leukemia = test system: HL-60(TB) leukemia
COLO 205 colon = test system: COLO 205 colon
SNB-19 CNS = test system: SNB-19 CNS
SNB-75 CNS = test system: SNB-75 CNS
KM20L2 colon = test system: KM20L2 colon
SK-MEL-2 melanoma = test system: SK-MEL-2 melanoma
HCT-116 colon = test system: HCT-116 colon
UO-31 renal = test system: UO-31 renal
OVCAR-5 ovarian = test system: OVCAR-5 ovarian
OVCAR-4 ovarian = test system: OVCAR-4 ovarian
EKVX NSCLC = test system: EKVX NSCLC
U251 CNS = test system: U251 CNS
UACC-62 melanoma = test system: UACC-62 melanoma
IGROV1 ovarian = test system: IGROV1 ovarian
KM12 colon = test system: KM12 colon
DMS 273 small cell lung = test system: DMS 273 small cell lung
M14 melanoma = test system: M14 melanoma
DLD-1 colon = test system: DLD-1 colon
SN12C renal = test system: SN12C renal
MALME-3M melanoma = test system: MALME-3M melanoma
LOX IMVI melanoma = test system: LOX IMVI melanoma
HT29 colon = test system: HT29 colon
SF-539 CNS = test system: SF-539 CNS
SK-MEL-5 melanoma = test system: SK-MEL-5 melanoma
SF-295 CNS = test system: SF-295 CNS
DMS 114 small cell lung = test system: DMS 114 small cell lung
SF-268 CNS = test system: SF-268 CNS
MOLT-4 leukemia = test system: MOLT-4 leukemia
786-0 renal = test system: 786-0 renal
HOP-92 NSCLC = test system: HOP-92 NSCLC
M19-MEL melanoma = test system: M19-MEL melanoma
UACC-257 melanoma = test system: UACC-257 melanoma
SK-MEL-28 melanoma = test system: SK-MEL-28 melanoma
A498 renal = test system: A498 renal
DU-145 prostate = test system: DU-145 prostate
HCC-2998 colon = test system: HCC-2998 colon
MDA-MB-435 = test system: MDA-MB-435
NCI/ADR-RES ovarian = test system: NCI/ADR-RES ovarian
MDA-N = test system: MDA-N
RXF 393 renal = test system: RXF 393 renal
MDA-MB-231 breast = test system: MDA-MB-231 breast
PC-3 prostate = test system: PC-3 prostate
T-47D breast = test system: T-47D breast
BT-549 breast = test system: BT-549 breast
NCI-H226 lung = test system: NCI-H226 lung
MCF7 breast = test system: MCF7 breast
HS 578T breast = test system: HS 578T breast

Measured: TGI

COc1ccc(N(C)CN(C)c2nc(N(C)C)nc(N(C)C)n2)cc1
not listed: DU-145 prostate | HCC-2998 colon | MDA-MB-435 | NCI/ADR-RES ovarian | MDA-N | RXF 393 renal | MDA-MB-231 breast | PC-3 prostate | T-47D breast | BT-549 breast | NCI-H226 lung | MCF7 breast | HS 578T breast
> 100 µM: all other assays above

COC(=O)C1=C(OC(=O)/C(=C/c2ccc(Cl)cc2Cl)c2ccc(Cl)cc2Cl)C(C(=O)OC)[C@@]2(O)[C@@H](C(=O)OC)[C@H](C)C[C@@H]1[C@@H]2C(=O)OC (stereo partly drawn)
not listed: SNB-78 CNS | HOP-18 NSCLC | LXFL 529 NSCLC | KM20L2 colon | DMS 273 small cell lung | DLD-1 colon | DMS 114 small cell lung | M19-MEL melanoma
> 100 µM: all other assays above
